From patent US20130096332A1, “METHOD FOR INCREASING THE CONTENT OF DOCOSAHEXAENOIC ACID IN FAT-CONTAINING MATERIALS OR IN FATS AND OILS” (NIPPON SUISAN KAISHA, LTD., priority 2007, published 2013)

Assays:
Type in all cases: cell-based
[1] = system: strain mh295, microorganism classified into Labyrinthulae; assay: DHA percentage of fatty acid composition (gas chromatography) after culture with desaturase inhibitor, strain mh295; settings: GY medium, 28° C., 4 days, inhibitor added to medium (curcumin 1μg/ml), control 19.19
Description: (§1) Thirty three strains of microorganisms which were isolated from mangrove woods or sea water around Ishigaki City, Okinawa Prefecture and classified into Labyrinthulae, were cultured in a GY medium (prepared according to the method as described in “NIPPON SUISAN GAKKAISHI” vol. 68, no. 5, 674-678 (2002); GY medium containing 3% glucose and 1% yeast extract was prepared with 50% artificial sea water and adjusted to pH 6.0; this was used as a liquid medium or a plate medium with 1.5% agar) at 28° C. for 4 days, to which was added 1μg/ml of curcumin (Nacalai Tesque, Inc.) as an inhibitor for a Δ6-fatty acid desaturase. After termination of the culture, the microorganism was collected by centrifugal separation (1500×g, 10 min), and the cells were destroyed by ultra-sonication and extracted by chloroform/methanol (2:1; by v/v) to yield the total lipid. The resulting total lipid was subjected to methanolysis with 10% hydrogen chloride/methanol solution, and the fatty acid composition was analyzed by gas chromatography (Shimadzu Corp.; Model GC-2014). In a control, the same operation as mentioned above was made with no addition of curcumin. […]

[2] = system: strain mh375, microorganism classified into Labyrinthulae; assay: DHA percentage of fatty acid composition (gas chromatography) after culture with desaturase inhibitor, strain mh375; settings: GY medium, 28° C., 4 days, inhibitor added to medium (curcumin 1μg/ml), control 26.02
Description: as §1

[3] = system: microorganism classified into Labyrinthulae; assay: Content of docosahexaenoic acid in fats and oils produced versus control (summary statements); settings: culture with inhibitor versus no inhibitor
Description: (§2) Thirty three strains of microorganisms which were isolated from mangrove woods or sea water around Ishigaki City, Okinawa Prefecture and classified into Labyrinthulae, were cultured in a GY medium (prepared according to the method as described in “NIPPON SUISAN GAKKAISHI” vol. 68, no. 5, 674-678 (2002); GY medium containing 3% glucose and 1% yeast extract was prepared with 50% artificial sea water and adjusted to pH 6.0; this was used as a liquid medium or a plate medium with 1.5% agar) at 28° C. for 4 days, to which was added 1μg/ml of curcumin (Nacalai Tesque, Inc.) as an inhibitor for a Δ6-fatty acid desaturase. […] The resulting total lipid was subjected to methanolysis with 10% hydrogen chloride/methanol solution, and the fatty acid composition was analyzed by gas chromatography (Shimadzu Corp.; Model GC-2014). […]
(§3) To the total lipid (about 40 mg) which was extracted from the cells cultured in Examples 1 and 2 was added 0.5mg of nonadecanoic acid (C19:0) as an internal standard substance; then, the fatty acid composition after methanolysis with 10% hydrogen chloride/methanol solution was analyzed by gas chromatography (Shimadzu Corp.; Model GC-2014). From the ratio of the peak area of each fatty acid including DHA to that of C19:0, the amount of each fatty acid was determined.

[4] = system: strain mh314, microorganism classified into Labyrinthulae; assay: DHA percentage of fatty acid composition (gas chromatography) after culture with desaturase inhibitor, strain mh314; settings: GY medium, 28° C., 4 days, inhibitor added to medium (curcumin 1μg/ml), control 13.27
Description: as §1

[5] = system: strain mh314, microorganism classified into Labyrinthulae; assay: Determination of DHA amount with C19:0 internal standard, strain mh314; settings: from ratio of peak area to C19:0 internal standard, control 0.21
Description: as §2, §3

[6] = system: strain mh375, microorganism classified into Labyrinthulae; assay: Determination of DHA amount with C19:0 internal standard, strain mh375; settings: from ratio of peak area to C19:0 internal standard, control 0.39
Description: as §2, §3

[7] = system: strain mh295, microorganism classified into Labyrinthulae; assay: Determination of DHA amount with C19:0 internal standard, strain mh295; settings: from ratio of peak area to C19:0 internal standard, control 0.45
Description: as §2, §3

[8] = system: strain mh313, microorganism classified into Labyrinthulae; assay: DHA percentage of fatty acid composition (gas chromatography) after culture with desaturase inhibitor, strain mh313; settings: GY medium, 28° C., 4 days, inhibitor added to medium (curcumin 1μg/ml), control 26.03
Description: as §1

[9] = system: strain mh313, microorganism classified into Labyrinthulae; assay: Determination of DHA amount with C19:0 internal standard, strain mh313; settings: from ratio of peak area to C19:0 internal standard, control 0.56
Description: as §2, §3

SMILES | percentage of the peak area of docosahexaenoic acid [1] [%] | percentage of the peak area of docosahexaenoic acid [2] [%] | content of docosahexaenoic acid in the fats and oils produced, in comparison with that of the control [3] | percentage of the peak area of docosahexaenoic acid [4] [%] | amount of DHA [5] [g/L] | amount of DHA [6] [g/L] | amount of DHA [7] [g/L] | percentage of the peak area of docosahexaenoic acid [8] [%] | amount of DHA [9] [g/L]
COc1cc(/C=C/C(=O)CC(=O)/C=C/c2ccc(O)c(OC)c2)ccc1O [Example 1, curcumin] | 22.32 | 33.77 | significantly increased | 27.23 | 0.66 | 1 | 0.67 | 31.05 | 0.71
c1cc2c(cc1[C@H]1OC[C@H]3[C@@H]1CO[C@@H]3c1ccc3c(c1)OCO3)OCO2 [Example 2, sesamin] | 21.47 | 29.96 | significantly increased | 22.31 | 0.82 | 0.64 | 0.98 | 42.32 | 1.45
